Assay results published in patent publication US11572351B1, “Bis-Schiff base compositions and formulations” (Systima Technologies, Inc., priority 2016, dated 2023).

What was measured:
[1] = Melt viscosity versus temperature, parallel plate rheometer, temperature ramp; assay type: physicochemical; conditions: ramp 2° C. per minute, strain 0.01%, 10.00 rad/s; processing window about 100° C. up to at least 200° C.
Protocol: (§1) In some embodiments, the chemical composition may have a low viscosity, such as below about 100,000 cP at temperatures below 170° C. The viscosity may be measured by rotational rheometry by acquiring viscosity versus temperature curves on a parallel plate rheometer, commercially available from TA Instruments (New Castle, Del.) at a controlled strain of 0.01% and an angular frequency of 10.00 radians per second (rad/s) by heating samples at a rate of 2° C. per minute to the isothermal temperature specified. In one or more embodiments, the chemical composition may have a melt viscosity of less than or equal to 500 cP at 125° C. as measured by rotation rheometry. In one or more embodiments, the chemical composition may have a melt viscosity of less than or equal to 100,000 cP at 125° C. as measured by rotation rheometry. For instance, the chemical composition may have a melt viscosity of from 10,000 to 100,000 cP, from 40,000 to 80,000 cP, or from 20,000 to 50,000 cP at 125° C. In some particular embodiments, the chemical composition may have an extremely low viscosity at less than 200° C., such as less than 500 cP. In some particular embodiments, the chemical composition may have a melt viscosity of from 100 to 500 cP, from 200 to 400 cP, or from 300 to 500 cP at 125° C. […]

[2] = Viscosity stability during 4 hour isothermal dwell at 120° C., parallel plate rheometer; assay type: physicochemical; conditions: isothermal 120° C., viscosity stayed 150 to 200 cP
Protocol: as §1

Structure (SMILES) | viscosity (melt flow viscosity) [1] | period of time of stable low melt viscosity [2]
C(=N\c1cccc(Oc2cccc(Oc3cccc(/N=C/c4ccco4)c3)c2)c1)/c1ccco1 [Example 2] | less than 1000 cP | at least 4 hours
C(=N\c1ccc(Oc2cccc(Oc3ccc(/N=C/c4ccco4)cc3)c2)cc1)/c1ccco1 [Example 1] | less than 1000 cP | at least 4 hours
